Earlier results, collected in US11364187B2, “Compositions and methods for preventing and reversing aspects of aging” (CENTERS FOR AGE CONTROL, INC., priority 2017, dated 2022).

Key:
[1] = 60 year old human equivalent mice, one week of injections
[2] = human body
[3] = topically applied
SIRT1 enzyme = molecular target: T1, SIRT1 enzyme (Homo sapiens, UniProt Q96EB6); conditions: in vitro
T1 sequence (Q96EB6 1-747): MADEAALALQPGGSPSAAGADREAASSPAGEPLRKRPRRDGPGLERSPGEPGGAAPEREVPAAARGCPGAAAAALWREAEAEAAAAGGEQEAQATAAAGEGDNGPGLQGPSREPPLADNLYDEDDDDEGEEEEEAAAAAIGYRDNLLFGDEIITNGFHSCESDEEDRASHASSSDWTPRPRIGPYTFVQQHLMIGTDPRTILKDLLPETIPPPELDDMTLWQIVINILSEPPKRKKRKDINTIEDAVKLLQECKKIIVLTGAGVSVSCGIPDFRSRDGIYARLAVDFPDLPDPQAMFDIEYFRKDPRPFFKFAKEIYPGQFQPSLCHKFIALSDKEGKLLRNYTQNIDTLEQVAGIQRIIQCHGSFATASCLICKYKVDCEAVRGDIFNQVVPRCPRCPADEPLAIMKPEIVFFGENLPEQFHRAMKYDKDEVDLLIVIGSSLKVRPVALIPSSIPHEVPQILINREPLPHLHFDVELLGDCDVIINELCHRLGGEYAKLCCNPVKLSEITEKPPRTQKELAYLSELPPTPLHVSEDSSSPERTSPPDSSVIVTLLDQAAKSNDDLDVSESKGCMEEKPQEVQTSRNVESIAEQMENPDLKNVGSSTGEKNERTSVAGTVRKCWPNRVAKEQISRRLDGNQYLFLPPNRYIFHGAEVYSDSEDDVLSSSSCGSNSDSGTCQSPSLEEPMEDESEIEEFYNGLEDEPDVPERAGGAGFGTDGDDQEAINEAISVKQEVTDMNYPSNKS

For `NC(=O)c1ccc[n+]([C@@H]2O[C@H](COP(=O)([O-])O)[C@@H](O)[C@H]2O)c1` [NMN, nicotinamide mono nucleotide], the “muscle tissue age appearance” value [1] is given as “muscle tissue resembling 20 years old”.
In the case of `COc1cc(/C=C/c2ccc(O)cc2)cc(OC)c1` [Pterostilbene], the absorption [2] is listed as “about 80%” and the “absorption relative to resveratrol” value [2] is listed as “about four times more effectively”.
In the case of `NC(=O)c1cccnc1` [nicotinamide], the “wrinkles and dark spots on skin” value [3] is given as “reduces the wrinkles and dark spots on skin” and the “effect on SIRT1 enzyme” value (SIRT1 enzyme) is given as “direct inhibitor of SIRT1 enzyme in vitro”.
